The values that follow come from patent US11986471B2, “Compounds and methods of use” (Tango Therapeutics, Inc., priority 2018, dated 2024).

Test [1] deals with T1, PRMT5 (Homo sapiens, UniProt O14744).
T1 construct: purchased Viva (custom protein)
The experiment in a line: PRMT5 IC50 assay with no cofactor. The class given is biochemical. In outline:
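Enzyme: human PRMT5. Conditions: plus SAM, plus MTA, or cofactor-free. Output: IC50 (μM); Ki via IC50/1.5 (SAM) or IC50/13.5 (MTA).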

The next test has as its system HAP1 MTAP-intact. Briefly: SDMA in-cell western assay, HAP1 MTAP-intact cell line. The class given is cell-based. As to conditions: Homo sapiens. In outline:
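Potency reflects cellular SDMA reduction, detected by in-cell western, in HAP1 cells with or without MTAP (endogenous expression versus null).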

Test [2] deals with T1, PRMT5. Briefly: PRMT5 IC50 assay in the presence of MTA as cofactor. The class given is biochemical. As to conditions: for IC50: PRMT5, MTA as cofactor. A digest of the protocol: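 Potency against PRMT5 is compared across cofactor states, where IC50 equals Ki×1.5 with SAM present and Ki×13.5 with MTA present.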
The next test deals with HAP1 MTAP-deleted. The experiment in a line: SDMA in-cell western assay, HAP1 MTAP-deleted cell line. The class given is cell-based. Particulars: for IC50: Homo sapiens, HAP1 MTAP-deleted cell line; for MTAP Intact/Deleted Ratio: IC50 ratio HAP1 MTAP-intact / HAP1 MTAP-deleted. A digest of the protocol:
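These are IC50 values from an in-cell western measuring SDMA. The HAP1 cells used carry no MTAP, in contrast to the isogenic partner line with endogenous MTAP expression.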

In test [3] the target is T1, PRMT5. The experiment in a line: PRMT5 IC50 assay in the presence of SAM as cofactor. The class given is biochemical. In outline:
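Human PRMT5 inhibition, IC50 in μM; cofactor varied (SAM / MTA / none).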

Where [4] appears, read: ratio between the Ki in the presence of SAM and the Ki in the presence of MTA.
Where [5] appears, read: ratio between Ki in the presence of SAM and Ki in the presence of MTA.

Each structure is given as a SMILES string. A value given as a limit tells only on which side of the number the result lay.

T1 sequence (O14744 whole entry): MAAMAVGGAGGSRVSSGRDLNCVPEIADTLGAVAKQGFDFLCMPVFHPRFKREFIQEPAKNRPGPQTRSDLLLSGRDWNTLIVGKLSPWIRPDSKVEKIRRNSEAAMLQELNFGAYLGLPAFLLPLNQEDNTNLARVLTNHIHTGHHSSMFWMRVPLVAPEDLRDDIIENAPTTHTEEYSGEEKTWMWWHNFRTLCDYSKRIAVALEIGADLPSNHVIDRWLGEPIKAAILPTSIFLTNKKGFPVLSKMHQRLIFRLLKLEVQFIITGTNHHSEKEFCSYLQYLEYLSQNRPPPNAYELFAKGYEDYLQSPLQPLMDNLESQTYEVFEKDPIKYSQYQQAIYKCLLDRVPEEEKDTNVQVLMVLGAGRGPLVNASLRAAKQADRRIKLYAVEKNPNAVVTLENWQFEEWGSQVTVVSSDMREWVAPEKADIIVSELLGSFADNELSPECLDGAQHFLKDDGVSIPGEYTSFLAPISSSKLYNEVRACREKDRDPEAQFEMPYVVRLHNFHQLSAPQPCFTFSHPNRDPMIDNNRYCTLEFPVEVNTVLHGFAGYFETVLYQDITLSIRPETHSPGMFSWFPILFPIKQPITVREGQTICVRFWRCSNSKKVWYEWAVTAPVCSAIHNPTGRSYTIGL
T1 sequence (Q9BQA1 whole entry partner): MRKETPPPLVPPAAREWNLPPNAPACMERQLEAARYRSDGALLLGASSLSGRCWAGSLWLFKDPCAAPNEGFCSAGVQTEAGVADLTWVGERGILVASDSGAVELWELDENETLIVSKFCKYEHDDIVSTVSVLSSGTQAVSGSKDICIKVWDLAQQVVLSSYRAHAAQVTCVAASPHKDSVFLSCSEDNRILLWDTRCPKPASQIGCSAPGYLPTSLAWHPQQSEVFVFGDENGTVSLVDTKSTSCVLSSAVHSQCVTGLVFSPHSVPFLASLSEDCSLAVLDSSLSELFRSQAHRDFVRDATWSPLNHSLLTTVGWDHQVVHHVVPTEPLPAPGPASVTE

Regarding `CC(=O)N1CCN(c2cc(C(=O)NC[C@H](O)CN3CCc4cc(OCc5ocnc5C)c(F)cc4C3)cc(NC3CCC3)n2)CC1` [Compound 615, 2-(4-acetylpiperazin-1-yl)-6-(cyclobutylamino)-N-[(2S)-3-[7-fluoro-6-[(4-methyloxazol-5-yl)methoxy]-3,4-dihydro-1H-isoquinolin-2-yl]-2-hydroxy-propyl]pyridine-4-carboxamide], the 50% inhibitory concentration (IC50) (commonly the concentration at which inhibition is half-maximal) is 500 to 5000 nM at PRMT5 [1]; 1000 to 10000 nM in the test on HAP1 MTAP-intact; 50 to 500 nM at PRMT5 [2]; < 1000 nM with HAP1 MTAP-deleted; 50 to 500 nM on PRMT5 [3]. Further, the “SAM/MTA Ratio” value at PRMT5 [2] (setting [4]) is “A (a Ki ratio greater than or equal to 10 fold between the Ki in the presence of SAM and the Ki in the presence of MTA)”. The “MTAP Intact/Deleted Ratio” value in the test with HAP1 MTAP-deleted is “A* (an IC50 ratio greater than or equal to 10 fold between the IC50 in the HAP1 MTAP-intact cell line and the HAP1 MTAP-deleted cell line)”.

Turning to `Cc1ncoc1COc1ccc2c(c1C)CCN(C[C@@H](O)CNC(=O)c1cc(NC3COC3)nc(N3CCN(C(C)(C)C)CC3)n1)C2` [Compound 435, 2-(4-tert-butylpiperazin-1-yl)-N-[(2S)-2-hydroxy-3-{5-methyl-6-[(4-methyl-1,3-oxazol-5-yl)methoxy]-1,2,3,4-tetrahydroisoquinolin-2-yl}propyl]-6-[(oxetan-3-yl)amino]pyrimidine-4-carboxamide], the IC50 is ≥ 5000 nM at PRMT5 [1]; ≥ 10000 nM with HAP1 MTAP-intact; 50 to 500 nM on PRMT5 [2]; ≥ 10000 nM in the test on HAP1 MTAP-deleted; 50 to 500 nM at PRMT5 [3]. In addition, the “SAM/MTA Ratio” value on PRMT5 [2] (setting [4]) is “A (a Ki ratio greater than or equal to 10 fold between the Ki in the presence of SAM and the Ki in the presence of MTA)”. Also, the “MTAP Intact/Deleted Ratio” value in the test with HAP1 MTAP-deleted was “C* (an IC50 ratio of less than 3 fold between the IC50 in the HAP1 MTAP-intact cell line and the HAP1 MTAP-deleted cell line)”.

With `O=C(NC[C@H](O)CN1CCc2cc(OCc3cnco3)ccc2C1)c1cc(NC2COC2)nc(N2CCN(C(=O)C3CC3)CC2)n1` [Compound 290, (S)-2-(4-(cyclopropanecarbonyl)piperazin-1-yl)-N-(2-hydroxy-3-(6-(oxazol-5-ylmethoxy)-3,4-dihydroisoquinolin-2(1H)-yl)propyl)-6-(oxetan-3-ylamino)pyrimidine-4-carboxamide], the half-maximal inhibitory concentration (IC50) at PRMT5 [1] (read-out: No Co-factor IC50) is 500 to 5000 nM; in the test on HAP1 MTAP-intact it was 1000 to 10000 nM; at PRMT5 [2], 50 to 500 nM; in the test with HAP1 MTAP-deleted, 1000 to 10000 nM; at PRMT5 [3], 50 to 500 nM. Besides, the “SAM/MTA Ratio” value on PRMT5 [2] (setting [5]) was “A (a Ki ratio greater than or equal to 10 fold between the Ki in the presence of SAM and the Ki in the presence of MTA)”. For the same compound, in the test on HAP1 MTAP-deleted, the “MTAP Intact/Deleted Ratio” value was “B* (an IC50 ratio greater than or equal to 3 fold but lower than 10 fold between the IC50 in the HAP1 MTAP-intact cell line and the HAP1 MTAP-deleted cell line)”.

Turning to `CC(=O)N1CCN(c2nc(NC3COC3)cc(C(=O)NC[C@H](O)CN3CCc4cc(OCc5cnco5)ccc4C3)n2)CC1` [Compound 321], the IC50 on PRMT5 [1] (read-out: No Co-factor IC50) is 500 to 5000 nM; with HAP1 MTAP-intact, ≥ 10000 nM; at PRMT5 [2] it was 50 to 500 nM; in the test with HAP1 MTAP-deleted it was 1000 to 10000 nM; on PRMT5 [3] it was 50 to 500 nM. For the same compound, on PRMT5 [2] (setting [5]), the “SAM/MTA Ratio” value is “A (a Ki ratio greater than or equal to 10 fold between the Ki in the presence of SAM and the Ki in the presence of MTA)”. Also, the “MTAP Intact/Deleted Ratio” value with HAP1 MTAP-deleted was “C* (an IC50 ratio of less than 3 fold between the IC50 in the HAP1 MTAP-intact cell line and the HAP1 MTAP-deleted cell line)”.

On to `Cc1ncoc1COc1ccc2c(c1C)CCN(C[C@@H](O)CNC(=O)c1cc(NC3CCC3)nc(OCCN(C)C)c1)C2` [Compound 500, 2-(cyclobutylamino)-6-[2-(dimethylamino)ethoxy]-N-[(2S)-2-hydroxy-3-{5-methyl-6-[(4-methyl-1,3-oxazol-5-yl)methoxy]-1,2,3,4-tetrahydroisoquinolin-2-yl}propyl]pyridine-4-carboxamide], for which the IC50 against PRMT5 [1] was 500 to 5000 nM; in the test on HAP1 MTAP-intact it was ≥ 10000 nM; on PRMT5 [2], 50 to 500 nM; in the test with HAP1 MTAP-deleted, < 1000 nM; at PRMT5 [3], 50 to 500 nM. Besides, the “SAM/MTA Ratio” value at PRMT5 [2] (setting [4]) is “A (a Ki ratio greater than or equal to 10 fold between the Ki in the presence of SAM and the Ki in the presence of MTA)”. In the test on HAP1 MTAP-deleted, the “MTAP Intact/Deleted Ratio” value is “A* (an IC50 ratio greater than or equal to 10 fold between the IC50 in the HAP1 MTAP-intact cell line and the HAP1 MTAP-deleted cell line)”.

Take `O=C(NC[C@H](O)CN1CCc2c(ccc(OCc3cnco3)c2Cl)C1)c1cc(NC2CCC2)nc(N2CCCCC2)c1` [Compound 305, (S)—N-(3-(5-chloro-6-(oxazol-5-ylmethoxy)-3N-dihydroisoquinolin-2(1H)-yl)-2-hydroxypropyl)-2-(cyclobutylamino)-6-(piperidin-1-yl)isonicotinamide]: the half-inhibitory concentration (IC50) is ≥ 5000 nM on PRMT5 [1] (read-out: No Co-factor IC50); ≥ 10000 nM with HAP1 MTAP-intact; 500 to 5000 nM at PRMT5 [2]; 1000 to 10000 nM in the test on HAP1 MTAP-deleted; 500 to 5000 nM on PRMT5 [3]. Also, at PRMT5 [2] (setting [5]), the “SAM/MTA Ratio” value is “A (a Ki ratio greater than or equal to 10 fold between the Ki in the presence of SAM and the Ki in the presence of MTA)”. In addition, in the test with HAP1 MTAP-deleted, the “MTAP Intact/Deleted Ratio” value was “C* (an IC50 ratio of less than 3 fold between the IC50 in the HAP1 MTAP-intact cell line and the HAP1 MTAP-deleted cell line)”.

`CCC(=O)N1CCC(Nc2cc(C(=O)NC[C@H](O)CN3CCc4c(ccc(OCc5cnco5)c4C)C3)ccn2)CC1` [Compound 496, (S)—N-(2-hydroxy-3-(5-methyl-6-(oxazol-5-ylmethoxy)-3N-dihydroisoquinolin-2(1H)-yl)propyl)-2-((1-propionylpiperidin-4-yl)amino)isonicotinamide]: the IC50 at PRMT5 [1] was 500 to 5000 nM; with HAP1 MTAP-intact, ≥ 10000 nM; at PRMT5 [2], 50 to 500 nM; in the test with HAP1 MTAP-deleted, 1000 to 10000 nM; on PRMT5 [3], 50 to 500 nM. Further, at PRMT5 [2] (setting [4]), the “SAM/MTA Ratio” value was “A (a Ki ratio greater than or equal to 10 fold between the Ki in the presence of SAM and the Ki in the presence of MTA)”. The “MTAP Intact/Deleted Ratio” value with HAP1 MTAP-deleted is “B* (an IC50 ratio greater than or equal to 3 fold but lower than 10 fold between the IC50 in the HAP1 MTAP-intact cell line and the HAP1 MTAP-deleted cell line)”.

Take `CC(=O)N1CCN(c2nc(NC3COC3)cc(C(=O)NC[C@H](O)CN3CCc4cc(OCc5ocnc5C)ccc4C3)n2)CC1` [Compound 401, 2-(4-acetylpiperazin-1-yl)-N-[(2S)-2-hydroxy-3-{6-[(4-methyl-E3-oxazol-5-yl)methoxy]-1,2,3,4-tetrahydroisoquinolin-2-yl}propyl]-6-[(oxetan-3-yl)amino]pyrimidine-4-carboxamide]: the IC50 on PRMT5 [1] (read-out: No Co-factor IC50) is 500 to 5000 nM; with HAP1 MTAP-intact, ≥ 10000 nM; at PRMT5 [2] it was 50 to 500 nM; with HAP1 MTAP-deleted it was 1000 to 10000 nM; at PRMT5 [3], 50 to 500 nM. At PRMT5 [2] (setting [5]), the “SAM/MTA Ratio” value is “A (a Ki ratio greater than or equal to 10 fold between the Ki in the presence of SAM and the Ki in the presence of MTA)”. Moreover, in the test with HAP1 MTAP-deleted, the “MTAP Intact/Deleted Ratio” value is “B* (an IC50 ratio greater than or equal to 3 fold but lower than 10 fold between the IC50 in the HAP1 MTAP-intact cell line and the HAP1 MTAP-deleted cell line)”.
